# US8629171B2, “Crystalline form of methyl ((1S)-1-((25)-2-(5-(4'-(2-((25)-1((2S)-2-((methoxycarbonyl)amino)-3-methylbutanoyl)-2-pyrrolidinyl)-1H-imidazol-2-yl)-1-pyrrolidinyl)carbonyl)-2-methylpropyl)carbamate dihydrochloride salt” (Bristol-Myers Squibb Company, priority 2007, dated 2014)
# Structures can show the parent of a compound that is named as a salt.
# Assay: aqueous solubility
# Assay type: physicochemical
# Details: crystalline Form N-2 of the dihydrochloride salt
structure (smiles),measurement,value
"COC(=O)N[C@H](C(=O)N1CCC[C@H]1c1nc(-c2ccc(-c3ccc(-c4c[nH]c([C@@H]5CCCN5C(=O)[C@@H](NC(=O)OC)C(C)C)n4)cc3)cc2)c[nH]1)C(C)C [Compound (I), methyl ((1S)-1-(((2S)-2-(5-(4′-(2-((2S)-1-((2S)-2-((methoxycarbonyl)amino)-3-methylbutanoyl-2-pyrrolidinyl)-1H-imidazol-5-yl)-4-biphenylyl)-1H-imidazol-2-yl)-1-pyrrolidinyl)carbonyl)-2-methylpropyl)carbamatedihydrochloride salt]",aqueous solubility,high
